# According to patent US8853258B2, “C-linked hydroxamic acid derivatives useful as antibacterial agents” (Pfizer Inc., priority 2009, dated 2014):
# Read-outs that look alike come from different tables or passages of the source.
# Columns and labels:
# [1] = molecular target: Pseudomonas aeruginosa LpxC enzyme (Pseudomonas aeruginosa (strain ATCC 15692 / DSM 22644 / CIP 104116 / JCM 14847 / LMG 12228 / 1C / PRS 101 / PAO1), UniProt P47205); assay: IC50 Assay, LpxC Enzyme from P. aeruginosa (PA LpxC Enzyme IC50); type: biochemical
# Procedure, shortened: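 Product formation quantified by RapidFire HTMS after a 1 h enzyme reaction quenched with 1N HCl.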
# [2] = test system: Acinetobacter baumanii/haemolyticus: Multidrug-resistant clinical isolate (AB-3167); assay: MIC determination (CLSI), AB-3167; type: cell-based; settings: for MIC: Acinetobacter baumannii
# Procedure, shortened: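 Multidrug-resistant clinical isolate AB-3167 (A. baumannii/haemolyticus) tested for minimum inhibitory concentration following CLSI dilution susceptibility standards M7-A7 and M100-S18.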
# [3] = test system: Pseudomonas aeruginosa UI-18: Wild-type (PA-7); assay: MIC determination (CLSI), PA-7; type: cell-based; settings: for MIC: Pseudomonas aeruginosa
# Procedure, shortened: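 Wild-type P. aeruginosa UI-18 tested for minimum inhibitory concentration. Broth/agar dilution following CLSI standards (M7-A7, M100-S18).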
# [4] = test system: Klebsiella pneumoniae: Ciprofloxacin-resistant isolate, ESBL, clinical isolate (KP-3700); assay: MIC determination (CLSI), KP-3700; type: cell-based
# Procedure, shortened: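 Strain KP-3700, a clinical isolate producing extended-spectrum β-lactamases and resistant to ciprofloxacin, was tested. Minimum inhibitory concentrations determined via CLSI dilution methodology (M7-A7; M100-S18).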
# [5] = test system: Escherichia coli EC-1: VOGEL, mouse virulent; assay: MIC determination (CLSI), EC-1; type: cell-based; settings: for MIC: Escherichia coli
# Procedure, shortened: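 E. coli Vogel, a mouse-virulent strain (EC-1), was tested. MICs were set by dilution susceptibility testing per CLSI standards M7-A7/M100-S18.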
# [6] = P. aeruginosa LpxC enzyme, read-out: PA LpxC enzyeme IC50
structure (smiles),measurement,setting,value
"CC(CCc1ccc(OCc2c(F)cccc2F)cc1)(C(=O)NO)S(C)(=O)=O (centres unmarked) [Example 258, 4-{4-[(2,6-difluorobenzyl)oxy]phenyl}-N-hydroxy-2-methyl-2-(methylsulfonyl)butanamide]",IC50,"[1]; Table 3, read-out: PA LpxC enzyeme IC^50",0.599 nM
same,MIC,"[2]; Table 3, read-out: AB-3167 MIC",32 µg/mL
same,MIC,"[3]; Table 3, read-out: PA-7 MIC",2 µg/mL
same,KP-3700 MIC,[4],16 µg/mL
same,MIC,[5]; read-out: EC-1 MIC,2 µg/mL
"CC(CCc1ccc(COc2ccccc2)cc1)(C(=O)NO)S(C)(=O)=O (centres unmarked) [Example 25, N-Hydroxy-2-methyl-2-(methylsulfonyl)-4-[4-(phenoxymethyl)phenyl]butanamide]",IC50,"[1]; Table 1, read-out: PA LpxC enzyeme IC50",2.38 nM
same,MIC,"[2]; Table 1, MIC, read-out: AB-3167 (MIC)",16 µg/mL
same,MIC,"[3]; Table 1, MIC, read-out: PA-7 (MIC)",8 µg/mL
same,KP-3700 MIC,[4],16 µg/mL
same,MIC,[5]; read-out: EC-1: (MIC),4 µg/mL
C[C@@](CCc1ccc(-c2ccc3c(c2)OCO3)cc1)(C(=O)NO)S(C)(=O)=O [Example 215],IC50,[1]; [6],0.0842 nM
same,AB-3167 MIC,[2]; Acinetobacter baumanii/haemolyticus AB-3167,16 µg/mL
same,PA-7 MIC,[3]; Pseudomonas aeruginosa UI-18 (PA-7),0.5 µg/mL
same,KP-3700 MIC,[4],2 µg/mL
same,EC-1 MIC,[5]; Escherichia coli EC-1,0.5 µg/mL
CC(=O)c1ccc(-c2ccc(CCC(C)(C(=O)NO)S(C)(=O)=O)cc2)cc1O (centres unmarked) [Example 181],IC50,[1]; [6],0.138 nM
same,AB-3167 MIC,[2]; Acinetobacter baumanii/haemolyticus multidrug-resistant clinical isolate AB-3167,8 µg/mL
same,PA-7 MIC,[3]; Pseudomonas aeruginosa UI-18 wild-type PA-7,2 µg/mL
same,KP-3700 MIC,[4],8 µg/mL
same,EC-1 MIC,"[5]; Escherichia coli EC-1 VOGEL, mouse virulent",0.5 µg/mL
